Assays:
[1] = tested on: T-Rex 293 cell line SC3 cells having increased expression of androgen receptor protein due to exposure to doxycycline; test: Cellular growth inhibition assay, T-Rex 293 SC3 cells with doxycycline (CellTiter-Glo, 72 hours); assay type: cell-based; details: 72 h, T-Rex 293 SC3 cells with increased androgen receptor expression due to doxycycline (10 ng/mL)
In short: (§1)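 Growth inhibition is measured in an inducible AR-expressing T-Rex 293 clone, SC3, cultured with or without 10 ng/mL doxycycline in hormone-depleted medium. Test compounds are applied for 72 hours. GI50 values derive from CellTiter-Glo 2.0 signal fitted by four-parameter regression.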

[2] = tested on: T-Rex 293 cell line SC3 cells lacking increased expression of androgen receptor protein; test: Cellular growth inhibition assay, T-Rex 293 SC3 cells without doxycycline (CellTiter-Glo, 72 hours); assay type: cell-based; details: 72 h, T-Rex 293 cell line SC3 cells not exposed to doxycycline (lacking increased androgen receptor expression)
In short: as §1

VCaP cells = test: Cellular growth inhibition assay for VCaP cells (CellTiter-Glo, 72 hours); assay type: cell-based, human; details: Homo sapiens, VCaP, 72 h
In short: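 Luminescent viability signal after 72 h of compound exposure gave GI50 values by four-parameter nonlinear regression. Compounds were added in 0.5% DMSO to cells plated 24 h earlier at 5000/well in DMEM containing 10% FBS.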

T47D cells = test: Cellular growth inhibition assay for T47D cells (CellTiter-Glo, 72 hours); assay type: cell-based, human; details: Homo sapiens, T47D, 72 h, 72 hours treatment
In short: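 Growth inhibition as GI50, fitted with four parameters to CellTiter-Glo luminescence after 72 h of compound exposure (0.5% DMSO). Cells were T47D, grown in insulin-supplemented (0.2 units/mL) DMEM with 10% FBS and treated one day post-seeding.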

Row | SMILES | GI50 (VCaP cells) | GI50 (T47D cells) | GI50 [1] | GI50 [2]
1 | Cc1sc2c(c1C)C(c1ccc(OC3CC4(CCN(c5ccc(C(=O)N[C@H]6CC[C@H](Oc7ccc(C#N)c(Cl)c7)CC6)nn5)CC4)C3)cc1)=N[C@@H](C)c1nnc(C)n1-2 [I-334] | < 500 nM | < 500 nM | < 500 nM | 500 to 1500 nM
2 | Cc1sc2c(c1C)C(c1ccc(CC3CC4(CCN(c5ccc(C(=O)N[C@H]6CC[C@H](Oc7ccc(C#N)c(Cl)c7)CC6)nn5)CC4)C3)cc1)=N[C@@H](C)c1nnc(C)n1-2 [I-335] | < 500 nM | < 500 nM | < 500 nM | > 3000 nM
3 | Cc1sc2c(c1C)C(c1ccc(C#C[C@H]3C[C@@]4(CCCN(c5ccc(C(=O)N[C@H]6CC[C@H](Oc7ccc(C#N)c(Cl)c7)CC6)nn5)C4)C3)cc1)=N[C@@H](C)c1nnc(C)n1-2 [I-336] | < 500 nM | < 500 nM | < 500 nM | < 500 nM
4 | Cc1sc2c(c1C)C(c1ccc(C#C[C@H]3C[C@]4(CCCN(c5ccc(C(=O)N[C@H]6CC[C@H](Oc7ccc(C#N)c(Cl)c7)CC6)nn5)C4)C3)cc1)=N[C@@H](C)c1nnc(C)n1-2 [I-337] | < 500 nM | 500 to 1500 nM | < 500 nM | 500 to 1500 nM
5 | Cc1sc2c(c1C)C(c1ccc(CC3CC4(CCCN(c5ccc(C(=O)N[C@H]6CC[C@H](Oc7ccc(C#N)c(Cl)c7)CC6)nn5)C4)C3)cc1)=N[C@@H](C)c1nnc(C)n1-2 (stereo partly drawn) [I-338] | < 500 nM | 500 to 1500 nM | < 500 nM | > 3000 nM
6 | Cc1sc2c(c1C)C(c1ccc(OC[C@H]3C[C@]4(CCCN(c5ccc(C(=O)N[C@H]6CC[C@H](Oc7ccc(C#N)c(Cl)c7)CC6)nn5)C4)C3)cn1)=N[C@@H](Cc1ncco1)c1nnc(C)n1-2 [I-339] | < 500 nM | < 500 nM | < 500 nM | < 500 nM
7 | Cc1sc2c(c1C)C(c1ccc(OC[C@H]3C[C@@]4(CCCN(c5ccc(C(=O)N[C@H]6CC[C@H](Oc7ccc(C#N)c(Cl)c7)CC6)nn5)C4)C3)cn1)=N[C@@H](Cc1ncco1)c1nnc(C)n1-2 [I-340] | < 500 nM | < 500 nM | < 500 nM | < 500 nM
8 | Cc1sc2c(c1C)C(c1ccc(CC3CC4(CCN(c5ccc(C(=O)N[C@H]6CC[C@H](Oc7ccc(C#N)c(Cl)c7)CC6)nn5)CC4)C3)nc1)=N[C@@H](Cc1ncco1)c1nnc(C)n1-2 [I-347] | < 500 nM | < 500 nM | < 500 nM | < 500 nM
9 | Cc1sc2c(c1C)C(c1ccc(O[C@H]3C[C@@]4(CCCN(c5ccc(C(=O)N[C@H]6CC[C@H](Oc7ccc(C#N)c(Cl)c7)CC6)nn5)C4)C3)cc1)=N[C@@H](C)c1nnc(C)n1-2 [I-349] | 500 to 1500 nM | 500 to 1500 nM | < 500 nM | > 3000 nM
10 | Cc1sc2c(c1C)C(c1ccc(O[C@H]3C[C@]4(CCCN(c5ccc(C(=O)N[C@H]6CC[C@H](Oc7ccc(C#N)c(Cl)c7)CC6)nn5)C4)C3)cc1)=N[C@@H](C)c1nnc(C)n1-2 [I-350] | < 500 nM | 500 to 1500 nM | < 500 nM | > 3000 nM
11 | Cc1sc2c(c1C)C(c1ccc(C[C@H]3C[C@@]4(CCCN(c5ccc(C(=O)N[C@H]6CC[C@H](Oc7ccc(C#N)c(Cl)c7)CC6)nn5)C4)C3)cc1)=N[C@@H](C)c1nnc(C)n1-2 [I-351] | 1500 to 3000 nM | > 3000 nM | < 500 nM | > 3000 nM
12 | Cc1sc2c(c1C)C(c1ccc(C[C@H]3C[C@]4(CCCN(c5ccc(C(=O)N[C@H]6CC[C@H](Oc7ccc(C#N)c(Cl)c7)CC6)nn5)C4)C3)cc1)=N[C@@H](C)c1nnc(C)n1-2 [I-352] | < 500 nM | > 3000 nM | < 500 nM | > 3000 nM
13 | Cc1sc2c(c1C)C(c1ccc(CO[C@H]3C[C@@]4(CCCN(c5ccc(C(=O)N[C@H]6CC[C@H](Oc7ccc(C#N)c(Cl)c7)CC6)nn5)C4)C3)cc1)=N[C@@H](C)c1nnc(C)n1-2 [I-353] | < 500 nM | 500 to 1500 nM | < 500 nM | > 3000 nM
14 | Cc1sc2c(c1C)C(c1ccc(C(C)(C)N3CCC4(CCCN(c5ccc(C(=O)N[C@H]6CC[C@H](Oc7ccc(C#N)c(Cl)c7)CC6)nn5)C4)C3)cc1)=N[C@@H](Cc1ncco1)c1nnc(C)n1-2 (stereo partly drawn) [I-359] | > 3000 nM | > 3000 nM | > 3000 nM | > 3000 nM
15 | Cc1sc2c(c1C)C(c1ccc(O[C@@H]3CC[C@]4(CCCN(c5ccc(C(=O)N[C@H]6CC[C@H](Oc7ccc(C#N)c(Cl)c7)CC6)nn5)C4)C3)cn1)=N[C@@H](Cc1ncco1)c1nnc(C)n1-2 [I-360] | < 500 nM | < 500 nM | < 500 nM | < 500 nM
16 | Cc1sc2c(c1C)C(c1ccc(O[C@H]3CC[C@@]4(CCCN(c5ccc(C(=O)N[C@H]6CC[C@H](Oc7ccc(C#N)c(Cl)c7)CC6)nn5)C4)C3)cn1)=N[C@@H](Cc1ncco1)c1nnc(C)n1-2 [I-361] | < 500 nM | 500 to 1500 nM | < 500 nM | > 3000 nM
17 | Cc1sc2c(c1C)C(c1ccc(O[C@@H]3CC[C@@]4(CCCN(c5ccc(C(=O)N[C@H]6CC[C@H](Oc7ccc(C#N)c(Cl)c7)CC6)nn5)C4)C3)cn1)=N[C@@H](Cc1ncco1)c1nnc(C)n1-2 [I-362] | < 500 nM | < 500 nM | < 500 nM | < 500 nM

Second part, led by results:

Row | GI50 (VCaP cells) | GI50 (T47D cells) | SMILES | GI50 [1] | GI50 [2]
18 | > 3000 nM | > 3000 nM | Cc1sc2c(c1C)C(c1ccc(N(C)CC(=O)NCc3ccc(C(=O)N[C@H]4CC[C@H](Oc5ccc(C#N)c(Cl)c5)CC4)nn3)cc1)=N[C@@H](Cc1ncco1)c1nnc(C)n1-2 [I-332] | > 3000 nM | > 3000 nM
19 | < 500 nM | 500 to 1500 nM | Cc1sc2c(c1C)C(c1ccc(N(C)CC(=O)NCc3ccc(C(=O)N[C@H]4CC[C@H](Oc5ccc(C#N)c(Cl)c5)CC4)nn3)cc1)=N[C@H](Cc1ncco1)c1nnc(C)n1-2 [I-333] | > 3000 nM | > 3000 nM
20 | > 3000 nM | > 3000 nM | Cc1sc2c(c1C)C(c1ccc([C@@H]3CCN(C(=O)[C@@H]4CCCN(c5ccc(C(=O)N[C@H]6CC[C@H](Oc7ccc(C#N)c(Cl)c7)CC6)nn5)C4)C3)cc1)=N[C@@H](Cc1ncco1)c1nnc(C)n1-2 [I-341] | > 3000 nM | > 3000 nM
21 | < 500 nM | < 500 nM | Cc1sc2c(c1C)C(c1ccc([C@H]3CCN(C(=O)[C@@H]4CCCN(c5ccc(C(=O)N[C@H]6CC[C@H](Oc7ccc(C#N)c(Cl)c7)CC6)nn5)C4)C3)cc1)=N[C@@H](Cc1ncco1)c1nnc(C)n1-2 [I-342] | < 500 nM | < 500 nM
22 | 1500 to 3000 nM | > 3000 nM | Cc1sc2c(c1C)C(c1ccc(CN3CC(=O)N4C[C@H](c5ccc(C(=O)N[C@H]6CC[C@H](Oc7ccc(C#N)c(Cl)c7)CC6)nn5)C[C@H]4C3=O)cc1)=N[C@@H](Cc1ncco1)c1nnc(C)n1-2 [I-343] | < 500 nM | > 3000 nM
23 | > 3000 nM | > 3000 nM | Cc1sc2c(c1C)C(c1ccc([C@@H]3CCN(C(=O)[C@H]4CCCN(c5ccc(C(=O)N[C@H]6CC[C@H](Oc7ccc(C#N)c(Cl)c7)CC6)nn5)C4)C3)cc1)=N[C@@H](Cc1ncco1)c1nnc(C)n1-2 [I-344] | > 3000 nM | > 3000 nM
24 | < 500 nM | 500 to 1500 nM | Cc1sc2c(c1C)C(c1ccc([C@H]3CCN(C(=O)[C@H]4CCCN(c5ccc(C(=O)N[C@H]6CC[C@H](Oc7ccc(C#N)c(Cl)c7)CC6)nn5)C4)C3)cc1)=N[C@@H](Cc1ncco1)c1nnc(C)n1-2 [I-345] | < 500 nM | > 3000 nM
25 | < 500 nM | 500 to 1500 nM | Cc1sc2c(c1C)C(c1ccc(CN3CC(=O)N4C[C@@H](c5ccc(C(=O)N[C@H]6CC[C@H](Oc7ccc(C#N)c(Cl)c7)CC6)nn5)C[C@H]4C3=O)cc1)=N[C@@H](Cc1ncco1)c1nnc(C)n1-2 [I-346] | < 500 nM | > 3000 nM
26 | < 500 nM | < 500 nM | Cc1sc2c(c1C)C(c1ccc(N3CC4(C3)CC3(CCN(c5ccc(C(=O)N[C@H]6CC[C@H](Oc7ccc(C#N)c(Cl)c7)CC6)nn5)CC3)C4)cc1)=N[C@@H](Cc1ncco1)c1nnc(C)n1-2 [I-348] | < 500 nM | > 3000 nM
27 | 1500 to 3000 nM | 1500 to 3000 nM | Cc1sc2c(c1C)C(c1ccc([C@H]3C[C@@H](C[C@@H]4CCCN(c5ccc(C(=O)N[C@H]6CC[C@H](Oc7ccc(C#N)c(Cl)c7)CC6)nn5)C4)C3)cc1)=N[C@@H](Cc1ncco1)c1nnc(C)n1-2 [I-355] | > 3000 nM | > 3000 nM
28 | > 3000 nM | > 3000 nM | Cc1sc2c(c1C)C(c1ccc([C@H]3C[C@@H](C[C@H]4CCCN(c5ccc(C(=O)N[C@H]6CC[C@H](Oc7ccc(C#N)c(Cl)c7)CC6)nn5)C4)C3)cc1)=N[C@@H](Cc1ncco1)c1nnc(C)n1-2 [I-356] | > 3000 nM | > 3000 nM
29 | < 500 nM | < 500 nM | Cc1sc2c(c1C)C(c1ccc([C@H]3C[C@H](C[C@@H]4CCCN(c5ccc(C(=O)N[C@H]6CC[C@H](Oc7ccc(C#N)c(Cl)c7)CC6)nn5)C4)C3)cc1)=N[C@@H](Cc1ncco1)c1nnc(C)n1-2 [I-357] | < 500 nM | < 500 nM
30 | < 500 nM | < 500 nM | Cc1sc2c(c1C)C(c1ccc([C@H]3C[C@H](C[C@H]4CCCN(c5ccc(C(=O)N[C@H]6CC[C@H](Oc7ccc(C#N)c(Cl)c7)CC6)nn5)C4)C3)cc1)=N[C@@H](Cc1ncco1)c1nnc(C)n1-2 [I-358] | < 500 nM | > 3000 nM

Source: patent US20260109707A1, “HETEROBIFUNCTIONAL COMPOUNDS AND METHODS OF TREATING DISEASE” (Halda Therapeutics OpCo. Inc., priority 2022, published 2026)
